Results published in patent publication US20090247516A1, “3- (BENZO [D] [1,3] DIOXOL-5-YLMETHYL) -4- (THIO) OXO-2- (THIO) OXO-AZOLIDIN-5-YLIDENE DERIVATIVES AS ANTIBACTERIAL AGENTS” (priority 2006, published 2009).
Read-outs that look alike come from different tables or passages of the source.

Columns and labels:
S. aureus MurE = biological target: T1, S. aureus MurE (Staphylococcus aureus, UniProt Q2FZP6); assay: MurE enzyme assay (Method B); assay type: biochemical; settings: for activity at 100 µM: residual activity at 100 μM inhibitor, assay with 5% DMSO and without inhibitor taken as 100%, means of duplicates, read-out: S. aureus MurE RA at 100 μM inhibitor conc.; for IC50: several inhibitor concentrations, Hill equation
T1 sequence (Q2FZP6 1-493): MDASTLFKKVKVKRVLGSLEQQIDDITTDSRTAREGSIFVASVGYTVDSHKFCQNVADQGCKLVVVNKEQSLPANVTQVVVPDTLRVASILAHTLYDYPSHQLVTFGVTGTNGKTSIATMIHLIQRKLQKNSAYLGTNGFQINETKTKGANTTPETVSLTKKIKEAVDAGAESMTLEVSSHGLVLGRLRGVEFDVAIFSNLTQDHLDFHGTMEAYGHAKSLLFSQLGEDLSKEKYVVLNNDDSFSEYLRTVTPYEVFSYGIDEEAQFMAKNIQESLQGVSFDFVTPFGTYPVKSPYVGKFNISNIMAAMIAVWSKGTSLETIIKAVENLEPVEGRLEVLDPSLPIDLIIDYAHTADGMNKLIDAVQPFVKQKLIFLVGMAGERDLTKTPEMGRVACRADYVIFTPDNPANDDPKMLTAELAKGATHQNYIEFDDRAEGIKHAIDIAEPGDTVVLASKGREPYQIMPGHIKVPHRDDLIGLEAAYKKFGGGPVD
Experimental: Method B: MurE Enzyme Assay
The compounds are tested for their ability to inhibit the formation of UDP-MurNAc-L-Ala-γ-D-Glu-L-[^14C]Lys in mixtures (50 μl) containing 0.1 M Tris-HCl, pH 8.6, 15 mM MgCl2, 5 mM ATP, 100 μM UDP-MurNAc-L-Ala-γ-D-Glu, 200 μM L-[^14C]Lys (50,000 cpm), inhibitor (100 μM), DMSO (5%, v/v), and enzyme from S. aureus. After 30 min at 37° C., the reaction is stopped by addition of acetic acid (10 μl). After lyophilization, L-[^14C]Lys and of UDP-MurNAc-L-Ala-Y-D-Glu-L-[^14C]Lys are separated by reverse-phase HPLC on Nucleosil 100C18 5U (150×4.6 mm) in 50 mM ammonium formate, pH 4.7, at 0.6 ml/min, and quantitated by on-line scintillation counting using the Quicksafe Flow 2 scintillating fluid. The residual activity is determined with respect to an assay with 5% DMSO and without inhibitor (taken as 100%). Values presented are means of duplicates.
IC50 values were determined with several concentrations of the inhibitor using the Hill equation:
(§1) log[vi/(vo−vi)]=−n log[l]+logK′
(§2) where vo is the rate without inhibitor, vi the rate in the presence of inhibitor and n the Hill number.

E. coli MurD = E. coli MurD (Escherichia coli, UniProt P14900); assay: MurD enzyme assay (Method A); assay type: biochemical; settings: for activity at 100 µM: read-out: E. coli MurD RA at 100 μM inhibitor conc.
Experimental: Method A: MurD Enzyme Assay
The compounds are tested for their ability to inhibit the formation of UDP-MurNAc-L-Ala-D-[^14C]Glu in mixtures (50 μl) containing 0.1 M Tris-HCl, pH 8.6, 5 mM MgCl2, 5 mM ATP, 25 μM UDP-MurNAc-L-Ala, 25 μM D-[^14C]Glu, inhibitor (100 μM), DMSO (5%, v/v), and enzyme. After 30 min at 37° C., the reaction is stopped by addition of acetic acid (10 μl). After lyophilization, D-[^14C]Glu and of UDP-MurNAc-L-Ala-D-[^14C]Glu are separated by reverse-phase HPLC and quantitated by on-line scintillation counting. The residual activity is determined with respect to an assay with 5% DMSO and without inhibitor (taken as 100%). Values presented are means of duplicates.
IC50 values are determined with several concentrations of the inhibitor using the Hill equation:
as §1, §2

[1] = residual activity at 100 μM inhibitor, assay with 5% DMSO and without inhibitor taken as 100%, means of duplicates

Chain of E. coli MurD (P14900 whole entry): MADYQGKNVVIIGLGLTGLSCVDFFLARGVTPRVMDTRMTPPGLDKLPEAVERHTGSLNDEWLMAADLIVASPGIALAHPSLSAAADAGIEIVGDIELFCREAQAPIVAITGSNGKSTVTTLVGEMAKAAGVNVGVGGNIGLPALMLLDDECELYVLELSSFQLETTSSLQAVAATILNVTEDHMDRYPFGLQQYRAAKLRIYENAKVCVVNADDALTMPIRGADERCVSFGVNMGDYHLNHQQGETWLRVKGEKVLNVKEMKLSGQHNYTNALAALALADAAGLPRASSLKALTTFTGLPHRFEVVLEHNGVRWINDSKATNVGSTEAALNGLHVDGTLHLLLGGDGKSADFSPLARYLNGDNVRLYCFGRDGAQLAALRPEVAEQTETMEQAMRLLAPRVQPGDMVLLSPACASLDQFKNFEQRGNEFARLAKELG

CN(C)c1ccc(/C=C2\SC(=S)N(Cc3ccc4c(c3)OCO4)C2=O)cc1 [Example 11, (Z)-3-(benzo[d][1,3]dioxol-5-yl-methyl)-5-(4-(dimethylamino)benzylidene)-2-thioxothiazolidin-4-one]
activity at 100 µM (S. aureus MurE): 25%
IC50 (S. aureus MurE): 4.5 µM
IC50 (E. coli MurD): > 100 µM
activity at 100 µM (E. coli MurD; [1]): 95%

O=C1/C(=C/c2c(NCC3CCCO3)nc3ccccn3c2=O)SC(=S)N1Cc1ccc2c(c1)OCO2 (centres unmarked) [Example 3, (Z)-3-(benzo[d][1,3]dioxol-5-yl-methyl)-5-((4-oxo-2-((tetrahydrofuran-2-yl)methylamino)-4H-pyrido[1,2-a]pyrimidin-3-yl)methylene)-2-thioxothiazolidin-4-one]
activity at 100 µM (S. aureus MurE): 4%
IC50 (S. aureus MurE): 5 µM
IC50 (E. coli MurD): 24 µM
activity at 100 µM (E. coli MurD; [1]): 7%

N#Cc1nc(/C=C2/SC(=S)N(Cc3ccc4c(c3)OCO4)C2=O)oc1N1CCOCC1 [Example 9, (E)-2-((3-(benzo[d][1,3]dioxol-5-yl-methyl)-4-oxo-2-thioxothiazolidin-5-ylidene)methyl)-5-morpholinooxazole-4-carbonitrile]
activity at 100 µM (S. aureus MurE): 17%
IC50 (S. aureus MurE): 51 µM
IC50 (E. coli MurD): > 100 µM
activity at 100 µM (E. coli MurD; [1]): 98%

O=C1/C(=C/c2cccc(O)c2)SC(=S)N1Cc1ccc2c(c1)OCO2 [Example 10, (Z)-3-(benzo[d][1,3]dioxol-5-yl-methyl)-5-(3-hydroxybenzylidene)-2-thioxothiazolidin-4-one]
activity at 100 µM (S. aureus MurE): 31%
IC50 (S. aureus MurE): 13 µM
IC50 (E. coli MurD): > 100 µM
activity at 100 µM (E. coli MurD; [1]): 97%

O=C1/C(=C/c2c(NCCO)nc3ccccn3c2=O)SC(=S)N1Cc1ccc2c(c1)OCO2 [Example 4, (Z)-3-(benzo[d][1,3]dioxol-5-yl-methyl)-5-((2-(2-hydroxyethylamino)-4-oxo-4H-pyrido[1,2-a]pyrimidin-3-yl)methylene)-2-thioxothiazolidin-4-one]
activity at 100 µM (S. aureus MurE): 4%
IC50 (S. aureus MurE): 4 µM
IC50 (E. coli MurD): 15 µM
activity at 100 µM (E. coli MurD; [1]): 26%

CNc1nc2ccccn2c(=O)c1/C=C1\SC(=S)N(Cc2ccc3c(c2)OCO3)C1=O [Example 2, (Z)-3-(benzo[d][1,3]dioxol-5-yl-methyl)-5-((2-(methylamino)-4-oxo-4H-pyrido[1,2-a]pyrimidin-3-yl)methylene)-2-thioxothiazolidin-4-one]
activity at 100 µM (S. aureus MurE): 7%
IC50 (S. aureus MurE): 4 µM
IC50 (E. coli MurD): 111 µM
activity at 100 µM (E. coli MurD): 22%

O=C1/C(=C/c2c(NCCOCCO)nc3ccccn3c2=O)SC(=S)N1Cc1ccc2c(c1)OCO2 [Example 5, (Z)-3-(benzo[d][1,3]dioxol-5-yl-methyl)-5-((2-(2-(2-hydroxyethoxy)ethylamino)-4-oxo-4H-pyrido[1,2-a]pyrimidin-3-yl)methylene)-2-thioxothiazolidin-4-one]
activity at 100 µM (S. aureus MurE): 10%
IC50 (S. aureus MurE): 14 µM
IC50 (E. coli MurD): > 100 µM
activity at 100 µM (E. coli MurD; [1]): 71%

COc1ccccc1/C=C1\SC(=S)N(Cc2ccc3c(c2)OCO3)C1=O [Example 13, (Z)-3-(benzo[d][1,3]dioxol-5-yl-methyl)-5-(2-methoxybenzylidene)-2-thioxothiazolidin-4-one]
activity at 100 µM (S. aureus MurE): 90%
IC50 (S. aureus MurE): > 100 µM
IC50 (E. coli MurD): > 100 µM
activity at 100 µM (E. coli MurD; [1]): 75%

CCN(CC)c1ccc(/C=C2\SC(=S)N(Cc3ccc4c(c3)OCO4)C2=O)cc1 [Example 12, (Z)-3-(benzo[d][1,3]dioxol-5-yl-methyl)-5-(4-(diethylamino)benzylidene)-2-thioxothiazolidin-4-one]
activity at 100 µM (S. aureus MurE): 59%
IC50 (S. aureus MurE): > 100 µM
IC50 (E. coli MurD): > 100 µM
activity at 100 µM (E. coli MurD; [1]): 78%

COc1ccc(/C=C2\SC(=S)N(Cc3ccc4c(c3)OCO4)C2=O)c(OC)c1 [Example 14, (Z)-3-(benzo[d][1,3]dioxol-5-yl-methyl)-5-(2,4-dimethoxybenzylidene)-2-thioxothiazolidin-4-one]
activity at 100 µM (S. aureus MurE): 67%
IC50 (S. aureus MurE): > 100 µM
IC50 (E. coli MurD): > 100 µM
activity at 100 µM (E. coli MurD; [1]): 72%

O=C1/C(=C/c2cccc([N+](=O)[O-])c2)SC(=S)N1Cc1ccc2c(c1)OCO2 [Example 7, (Z)-3-(benzo[d][1,3]dioxol-5-yl-methyl)-5-(3-nitrobenzylidene)-2-thioxothiazolidin-4-one]
activity at 100 µM (S. aureus MurE): 19%
IC50 (S. aureus MurE): 7 µM
IC50 (E. coli MurD): > 100 µM
activity at 100 µM (E. coli MurD; [1]): 98%

O=C1/C(=C/c2c(NCCCO)nc3ccccn3c2=O)SC(=S)N1Cc1ccc2c(c1)OCO2 [Example 1, (Z)-3-(benzo[d][1,3]dioxol-5-yl-methyl)-5-((2-(3-hydroxypropylamino)-4-oxo-4H-pyrido[1,2-a]pyrimidin-3-yl)methylene)-2-thioxothiazolidin-4-one]
activity at 100 µM (S. aureus MurE): 82%
IC50 (S. aureus MurE): > 100 µM
IC50 (E. coli MurD): > 100 µM
activity at 100 µM (E. coli MurD; [1]): 77%

O=C1/C(=C/c2ccccc2O)SC(=S)N1Cc1ccc2c(c1)OCO2 [Example 8, (Z)-3-(benzo[d][1,3]dioxol-5-yl-methyl)-5-(2-hydroxybenzylidene)-2-thioxothiazolidin-4-one]
activity at 100 µM (S. aureus MurE): 23%
IC50 (S. aureus MurE): 1.5 µM
IC50 (E. coli MurD): > 100 µM
activity at 100 µM (E. coli MurD; [1]): 100%

O=C1/C(=C/c2ccccn2)SC(=S)N1Cc1ccc2c(c1)OCO2 [Example 6, (Z)-3-(benzo[d][1,3]dioxol-5-yl-methyl)-5-(pyridin-2-yl-methylene)-2-thioxothiazolidin-4-one]
activity at 100 µM (S. aureus MurE): 5%
IC50 (S. aureus MurE): 37 µM
IC50 (E. coli MurD): > 100 µM
activity at 100 µM (E. coli MurD; [1]): 99%
